Biological target: T1, sGC α1/β1 heterodimer stably expressed in CHO-K1 cells (CHO-K1/sGC) (Homo sapiens, UniProt Q02108+Q02153)
T1 construct: expressed in transfected cells
T1 sequence (Q02108 1-690): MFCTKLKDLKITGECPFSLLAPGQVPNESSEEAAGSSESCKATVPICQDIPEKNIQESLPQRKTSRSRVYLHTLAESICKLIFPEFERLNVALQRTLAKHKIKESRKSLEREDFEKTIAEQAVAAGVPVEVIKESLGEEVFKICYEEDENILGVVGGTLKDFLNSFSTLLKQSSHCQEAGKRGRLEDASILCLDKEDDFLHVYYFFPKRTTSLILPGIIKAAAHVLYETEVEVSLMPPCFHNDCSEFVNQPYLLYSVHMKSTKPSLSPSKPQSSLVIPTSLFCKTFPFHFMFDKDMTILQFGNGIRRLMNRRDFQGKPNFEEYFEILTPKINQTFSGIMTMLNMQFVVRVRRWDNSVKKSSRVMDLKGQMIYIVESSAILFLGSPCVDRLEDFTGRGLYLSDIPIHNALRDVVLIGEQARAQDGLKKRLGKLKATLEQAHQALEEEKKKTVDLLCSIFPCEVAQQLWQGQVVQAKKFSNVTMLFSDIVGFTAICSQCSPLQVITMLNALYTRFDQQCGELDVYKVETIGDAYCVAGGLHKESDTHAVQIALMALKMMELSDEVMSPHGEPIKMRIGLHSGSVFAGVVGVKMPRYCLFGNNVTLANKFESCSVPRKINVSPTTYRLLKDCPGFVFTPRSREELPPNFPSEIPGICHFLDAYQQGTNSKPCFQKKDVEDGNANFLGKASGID
T1 sequence (Q02153 1-619): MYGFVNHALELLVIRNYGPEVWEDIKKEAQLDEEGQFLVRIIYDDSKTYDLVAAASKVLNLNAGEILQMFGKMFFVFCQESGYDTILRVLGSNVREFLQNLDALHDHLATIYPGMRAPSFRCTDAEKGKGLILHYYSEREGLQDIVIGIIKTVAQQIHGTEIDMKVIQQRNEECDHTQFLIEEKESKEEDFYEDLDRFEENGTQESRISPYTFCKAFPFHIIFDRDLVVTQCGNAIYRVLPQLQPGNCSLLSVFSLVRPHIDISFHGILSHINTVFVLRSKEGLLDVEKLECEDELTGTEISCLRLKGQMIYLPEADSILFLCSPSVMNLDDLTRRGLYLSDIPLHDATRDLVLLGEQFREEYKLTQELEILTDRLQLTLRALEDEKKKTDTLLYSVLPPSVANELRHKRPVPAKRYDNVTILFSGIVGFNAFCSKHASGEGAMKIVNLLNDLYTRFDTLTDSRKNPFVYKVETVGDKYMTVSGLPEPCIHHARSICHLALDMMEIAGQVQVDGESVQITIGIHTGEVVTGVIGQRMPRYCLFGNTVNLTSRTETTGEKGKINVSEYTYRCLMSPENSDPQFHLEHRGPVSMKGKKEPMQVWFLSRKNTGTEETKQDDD
Assay: Cell-based sGC functional assay (CASA assay), cGMP generation by HTRF
Details: for Emax: CHO-K1, maximum cGMP production of Compound A set to 100% activation, read-out: % Act. (percent activation relative to Compound A); for EC50: CHO-K1/sGC cells, 1 hr at 37° C., 4P fit, presence or absence of DETA-NO not given, read-out: IP (nM) (inflection point)
Text: Biological Assay 1: Cell-Based sGC Functional Assay (CASA Assay) Rationale
sGC is a heme-containing enzyme that converts GTP to secondary messenger cGMP. Increases in cGMP levels affect several physiological processes including vasorelaxation through multiple downstream pathways. […] Heme-dependent activators (HDAs) preferentially activate sGC containing a ferrous heme group. To determine the effect of sGC activators on enzyme activity, the CASA assay was developed to monitor the generation of cGMP in a cell line that stably expresses the heterodimeric sGC protein.
A CHO-K1 cell line stably expressing the sGC α1/β1 heterodimer was generated using a standard transfection protocol. CHO-K1 cells were transfected with plasmids pIREShyghsGCα1 and pIRESneo-hsGCβ1 simultaneously using FUGENE reagent. Clones that stably express both subunits were selected with hygromycin and neomycin for ˜2 weeks. Clone #7 was chosen for the assay and was designated CHO-K1/sGC. CHO-K1/sGC cells were maintained in F-K12 medium containing 10% heat-inactivated Fetal Bovine Serum (FBS), 100 μg/mL penicillin/streptomycin, 0.5 mg/mL hygromycin and 0.25 mg/mL G418. The cells were then cryopreserved in LN2. On the day of the assay, cells were thawed and resuspended in EBSS Assay Buffer (Sigma, E3024) supplemented with 5 mM MgCl2, 10 mM HEPES (4-(2-hydroxyethyl)piperazine-1-ethanesulfonic acid) and 0.05% BSA (bovine serum albumin) (EAB) and cell density was then adjusted to 4×10^5/mL with EAB. IBMX (3-isobutyl-1-methylxanthin, 0.5 mM) was added to inhibit degradation of cGMP. Compounds were diluted from DMSO stock solutions and added to the assay at a final DMSO concentration of 2.5%. Cells were incubated with compounds in the presence and absence of 1 μM of Diethylenetriamine/nitric oxide adduct (DETA-NO; Sigma, 17018) for 1 hr at 37° C. At the end of the incubation period, the reaction was terminated and the cells were lysed with the detection reagents from Cisbio Kits. The level of intracellular cGMP was determined using an HTRF-based assay kit (CisBio, 62GM2PEC), which detects the displacement of a fluorescence labeled cGMP from its specific antibody. The cGMP produced by test compounds was directly compared to the maximum cGMP production (this value was set to equal 100% activation.) of the published sGC-HDA Compound A:
[drawing 101] (Example 1 in WO 2010/065275, published Jun. 10, 2010). The test compounds' activities were then expressed as a percentage of Compound A, the standard in every experiment. This percent activation was calculated either in the presence or absence of DETA-NO which was then plotted. IP and maximum fold induction was derived using ADA analysis software for 4P fit.
The compounds in the Examples of the instant invention had inflection points (IP) less than or equal to 10 μM and many had IPs less than or equal to about 1 μM.

Q: Which Emax does the source give for `CC1(c2ccc(Cl)cc2)C(=O)Nc2nc(-c3cn4ccnc4c(NCC4CCCCO4)n3)nc(N)c21` (single isomer, unassigned; fast eluting) [Example 71A, 4-amino-5-(4-chlorophenyl)-5-methyl-2-{8-[(tetrahydro-2H-pyran-2-ylmethyl)amino]imidazo [1,2-a]pyrazin-6-yl}-5,7-dihydro-6H-pyrrolo[2,3-d] pyrimidin-6-one (fast eluting)] here?
A: Its Emax is 96%.

Q: What about the EC50 of the same compound?
A: The EC50 was 175 nM.

Q: Which results are given for `CC1(c2ccccc2)C(=O)Nc2nc(-c3cn4ccnc4c(Oc4ccc(F)c(F)c4F)n3)nc(N)c21` (stereo not drawn) [Example 11B, 4-amino-5-methyl-5-phenyl-2-[8-(2,3,4-trifluoro-phenoxy)imidazo [1,2-a]pyrazin-6-yl]-5,7-dihydro-6H-pyrrolo[2,3-d] pyrimidin-6-one]?
A: Emax: 104%; EC50: 138 nM

Q: Which Emax does the source give for `CCC1(CNc2nc(-c3nc(N)c4c(n3)NC(=O)C4(C)c3ccc(F)cc3)cn3ccnc23)CC1` (stereo not drawn) [Example 54A, 4-amino-2-(8-{[(1-ethyl-cyclopropyl)methyl]amino}imidazo[1,2-a]pyrazin-6-yl)-5-(4-fluoro-phenyl)-5-methyl-5,7-dihydro-6H-pyrrolo[2,3-d] pyrimidin-6-one] here?
A: Its Emax is 98%.

Q: And the EC50?
A: The EC50 was 266 nM.

Q: For `CC(C)CSc1nc(-c2nc(N)c3c(n2)NC(=O)C3(C)c2ccc(F)cc2)cn2ccnc12` (stereo not drawn) [Example 63A, 4-amino-5-(4-fluorophenyl)-5-methyl-2-{8-[(2-methylpropyl)sulfanyl]imidazo [1,2-a]pyrazin-6-yl}-5,7-dihydro-6H-pyrrolo[2,3-d] pyrimidin-6-one], which Emax is on record?
A: Its Emax is 93%.

Q: What about the EC50 of the same compound?
A: Its EC50 is 10 nM.

Q: For `CC1(c2ccc(F)cc2)C(=O)Nc2nc(-c3cn4cc(C(F)(F)F)nc4c(Oc4cccc(F)c4F)n3)nc(N)c21` (stereo not drawn) [Example 37A, 4-amino-2-(8-(2,3-difluoro-phenoxy)-2-(trifluoromethyl)imidazo[1,2-a]pyrazin-6-yl)-5-(4-fluorophenyl)-5-methyl-5H-pyrrolo[2,3-d] pyrimidin-6(7H)-one], which Emax is on record?
A: The Emax was 83%.

Q: And the EC50?
A: Its EC50 is 719 nM.

Q: What does the source list for `CC1(c2ccc(F)cc2)C(=O)Nc2nc(-c3cn4ccnc4c(OCC4CC(F)(F)C4)n3)nc(N)c21` (stereo not drawn) [Example 31A, 4-amino-2-{8-[(3,3-difluoro-cyclobutyl)methoxy]imidazo [1,2-a]pyrazin-6-yl}-5-(4-fluoro-phenyl)-5-methyl-5,7-dihydro-6H-pyrrolo[2,3-d] pyrimidin-6-one]?
A: Emax: 98%; EC50: 145 nM

Q: How did the Emax turn out when `CC1(c2ccc(F)cc2)C(=O)Nc2nc(-c3cn4cc(C5CC5)nc4c(Oc4cccc(F)c4)n3)nc(N)c21` (stereo not drawn) [Example 38A, 4-amino-2-[2-cyclopropyl-8-(3-fluorophenoxy)imidazo[1,2-a]pyrazin-6-yl]-5-(4-fluorophenyl)-5-methyl-5,7-dihydro-6H-pyrrolo[2,3-d] pyrimidin-6-one] was run?
A: Its Emax is 92%.

Q: What about the EC50 of the same compound?
A: Its EC50 is 748 nM.

Q: Which Emax does the source give for `CC1(c2ccc(Cl)cc2)C(=O)Nc2nc(-c3cn4ccnc4c(Oc4cc(F)ccc4F)n3)nc(N)c21` (stereo not drawn) [Example 27A, 4-amino-5-(4-chlorophenyl)-2-[8-(2,5-difluoro-phenoxy)imidazo [1,2-a]pyrazin-6-yl]-5-methyl-5,7-dihydro-6H-pyrrolo[2,3-d] pyrimidin-6-one] here?
A: The Emax was 128%.

Q: What about the EC50 of the same compound?
A: The EC50 was 47 nM.

Q: `CC1(c2ccc(Cl)cc2)C(=O)Nc2nc(-c3cn4ccnc4c(NCC4CCCOC4)n3)nc(N)c21` (single isomer, unassigned; fast eluting) [Example 72A, 4-amino-5-(4-chlorophenyl)-5-methyl-2-{8-[(tetrahydro-2H-pyran-3-ylmethyl)amino]imidazo [1,2-a]pyrazin-6-yl}-5,7-dihydro-6H-pyrrolo[2,3-d] pyrimidin-6-one (fast eluting)] was tested. Which Emax did it give?
A: The Emax was 96%.

Q: And the EC50?
A: The EC50 was 1080 nM.

Q: Which Emax does the source give for `CC1(c2ccccc2)C(=O)Nc2nc(-c3cn4ccnc4c(Oc4cccc(F)c4F)n3)nc(N)c21` (stereo not drawn) [Example 13B, 4-amino-2-[8-(2,3-difluoro-phenoxy)imidazo [1,2-a]pyrazin-6-yl]-5-methyl-5-phenyl-5,7-dihydro-6H-pyrrolo[2,3-d] pyrimidin-6-one] here?
A: The Emax was 109%.

Q: And the EC50?
A: Its EC50 is 14 nM.

Q: With `CC1(c2ccccc2)C(=O)Nc2nc(-c3cn4ccnc4c(Oc4cccc(F)c4)n3)nc(N)c21` (stereo not drawn) [Example 8B, 4-amino-2-[8-(3-fluorophenoxy)imidazo[1,2-a]pyrazin-6-yl]-5-methyl-5-phenyl-5,7-dihydro-6H-pyrrolo[2,3-d] pyrimidin-6-one] as the compound, how does the Emax read?
A: The Emax was 110%.

Q: And the EC50?
A: Its EC50 is 22 nM.

Q: How did the Emax turn out when `CC1(c2ccccc2)C(=O)Nc2nc(-c3cn4ccnc4c(Oc4cc(F)cc(F)c4F)n3)nc(N)c21` (stereo not drawn) [Example 12B, 4-amino-5-methyl-5-phenyl-2-[8-(2,3,5-trifluoro-phenoxy)imidazo [1,2-a]pyrazin-6-yl]-5,7-dihydro-6H-pyrrolo[2,3-d] pyrimidin-6-one] was run?
A: The Emax was 99%.

Q: What about the EC50 of the same compound?
A: Its EC50 is 47 nM.

Q: With `CC1(c2ccc(F)cc2)C(=O)Nc2nc(-c3cn4ccnc4c(Oc4ccc(F)cc4)n3)nc(N)c21` (stereo not drawn) [Example 20A, 4-amino-2-[8-(4-fluorophenoxy)imidazo[1,2-a]pyrazin-6-yl]-5-(4-fluorophenyl)-5-methyl-5,7-dihydro-6H-pyrrolo[2,3-d] pyrimidin-6-one] as the compound, how does the Emax read?
A: Its Emax is 109%.

Q: What about the EC50 of the same compound?
A: The EC50 was 42 nM.

Q: How did the Emax turn out when `CC1(c2ccc(F)cc2)C(=O)Nc2nc(-c3cn4ccnc4c(Oc4ccc(F)c(F)c4F)n3)nc(N)c21` (stereo not drawn) [Example 16A, 4-amino-5-(4-fluorophenyl)-5-methyl-2-[8-(2,3,4-trifluorophenoxy)imidazo[1,2-a]pyrazin-6-yl]-5,7-dihydro-6H-pyrrolo [2,3-d]pyrimidin-6-one] was run?
A: Its Emax is 89%.

Q: And the EC50?
A: Its EC50 is 37 nM.

Q: With `CC1(c2ccccc2)C(=O)Nc2nc(-c3cn4ccnc4c(Oc4c(F)ccc(F)c4F)n3)nc(N)c21` (stereo not drawn) [Example 7B, 4-amino-5-methyl-5-phenyl-2-[8-(2,3,6-trifluorophenoxy)imidazo[1,2-a]pyrazin-6-yl]-5,7-dihydro-6H-pyrrolo[2,3-d] pyrimidin-6-one] as the compound, how does the Emax read?
A: Its Emax is 112%.

Q: What about the EC50 of the same compound?
A: The EC50 was 1020 nM.

Reference: patent US10245264B2, “Substituted imidazo[1,2-a]pyrazines as soluble guanylate cyclase activators” (Merck Sharp & Dohme Corp., priority 2015, dated 2019)
